Values quoted from earlier work as cited in US10842739B2, “Biodegradable alpha-2 agonist polymeric implants and therapeutic uses thereof” (Allergan, Inc., priority 2008, dated 2020).
Where two headings read alike, the source gives them in different places.

In the case of `Brc1c(NC2=NCCN2)ccc2nccnc12` [brimonidine freebase, 5-bromo-6-(2-imidazolidinylideneamino)quinoxaline], the “water solubility (in words)” value is given as “negligible”, the “water solubility (in words)” value (listed as Brimonidine free base) is given as “poorly water soluble” and the “water solubility (in words)” value (listed as brimonidine free base) is given as “not water soluble”.
